Measured values: article PMC7308271, “Discovery of a new class of orthosteric antagonists with nanomolar potency at extrasynaptic GABAA receptors” (Scientific Reports, 2020)
“Also recorded” adds a separate entry of the source.

Tests used:
[1] = system: α3−5 containing GABAΑ receptors; test: FMP assay, α3−5 containing receptors (summary); type: cell-based, human; settings: range over subtypes; read-out: potencies (IC50) at α3−5 containing receptors
Method: (§1) HEK293 cells were maintained in DMEM containing GlutaMAX-I, supplemented with 10% FBS and 1% penicillin-streptomycin and incubated at 37 °C and a humidity of 5% CO2. For expression of δ-containing GABAΑ receptors, a HEK293 Flp-In^ΤΜ cell line stably expressing the human GABAΑ δ-subunits (referred to as δ-HEK) was used and the γ-containing subtypes was expressed in a background HEK293 Flp-In^ΤΜ cell line stably expressing the G-protein coupled peptide receptor NPBWR2 (referred to as HEK background)[26], both positively selected for using 200 μg/mL hygromycin B. α1β2γ2 receptors were stably expressed in a HEK293 cell line maintained as above but with no selection (gift from Marianne L. Jensen, Neurosearch). […]
(§2) The FMP assay was performed as previously described with a few modifications. […] Data was obtained as changes in fluorescence units (∆RFU) by measuring emission at 560 nm caused by excitation at 530 nm. […]
(§3) Data obtained in the FMP assay are given as relative changes in fluorescence units (ΔRFU) by subtracting the average of the baseline fluorescence signal from the peak fluorescence signal after compound addition. […]

α1,2,6 GABAΑ receptors = test: FMP assay, α1,2,6 receptors (summary); type: cell-based, human; settings: range over subtypes; read-out: potency (IC50) at α1,2,6 receptors
Method: as §1, §2, §3

[2] = target: T1, human α4β1δ receptors in δ-HEK cells (Homo sapiens, UniProt P18505+P48169); test: Whole-cell patch-clamp electrophysiology, concentration-response; type: cell-based
T1 construct: expressed in transfected cells; host or cells: δ-HEK (HEK293 Flp-In stably expressing human δ), transiently transfected with α4 and β1 1:1
Description: (§4) To express recombinant GABAΑ receptors human α1, α2, α3, α5, α6, β2, γ2 (pcDNA3.1/Zeo) and α4, β1 (pUNIV)[26] subunit cDNA were transiently transfected into either δ-HEK or HEK background cells. δ-HEK cells were transfected with α- and β-subunits in a 1:1 ration whereas HEK background cells were transfected with α-, β- and γ-subunits in a 1:1:2 ratio. Human BGT1 (pcDNA5/FRT)[43] was transiently transfected into the δ-HEK cell line. δ-HEK cells transfected for whole-cell patch-clamp recordings were co-transfected with green fluorescent protein (GFP) as well as α- and β-subunits in a 0.5:1:1 ratio (0.8 μg + 1.6 μg + 1.6 μg in a 6 cm dish) in order to identify transfected cells. The transfection was carried out using Polyfect as transfection reagent according to the manufactures protocol expect for using half the recommended volume of Polyfect.

human BGT1 = target: T2, human BGT1 (Homo sapiens, UniProt P48065); test: Fluorescence interference control: BGT1-mediated GABA uptake in the FMP assay; type: cell-based; settings: 110 μM GABA uptake by BGT1 in δ-HEK cells; 2027 at 30, 10, 3 μM
T2 construct: expressed in transfected cells; host or cells: δ-HEK cells, transient transfection (pcDNA5/FRT)
T2 sequence (P48065 1-614): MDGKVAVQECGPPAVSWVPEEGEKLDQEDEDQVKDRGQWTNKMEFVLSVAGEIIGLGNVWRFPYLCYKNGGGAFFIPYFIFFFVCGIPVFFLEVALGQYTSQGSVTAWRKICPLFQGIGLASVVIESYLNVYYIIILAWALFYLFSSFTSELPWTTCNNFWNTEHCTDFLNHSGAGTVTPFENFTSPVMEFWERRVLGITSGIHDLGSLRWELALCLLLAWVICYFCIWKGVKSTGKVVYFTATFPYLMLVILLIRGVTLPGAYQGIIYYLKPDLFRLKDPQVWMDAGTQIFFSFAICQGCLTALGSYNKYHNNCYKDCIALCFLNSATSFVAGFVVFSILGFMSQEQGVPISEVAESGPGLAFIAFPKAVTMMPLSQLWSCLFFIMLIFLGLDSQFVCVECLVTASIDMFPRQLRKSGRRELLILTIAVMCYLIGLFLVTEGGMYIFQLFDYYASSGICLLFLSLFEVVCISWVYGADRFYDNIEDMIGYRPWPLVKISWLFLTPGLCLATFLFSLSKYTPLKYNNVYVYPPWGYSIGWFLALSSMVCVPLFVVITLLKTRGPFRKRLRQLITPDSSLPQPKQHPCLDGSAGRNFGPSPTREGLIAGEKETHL
Description: as §4
assay (perf ormed essentially as previously described in methods section and based on Al-Khawaja et al.).
in d-HEK cells was not decreased/quenched by 2027 in any of the tested concentrations. Data are shown as
means ± SD f rom a representative expe riment perf orme d in triplicate (n=2).
BGT1 expressed in HEK-δ cells

T1 sequence (P48169 36-554): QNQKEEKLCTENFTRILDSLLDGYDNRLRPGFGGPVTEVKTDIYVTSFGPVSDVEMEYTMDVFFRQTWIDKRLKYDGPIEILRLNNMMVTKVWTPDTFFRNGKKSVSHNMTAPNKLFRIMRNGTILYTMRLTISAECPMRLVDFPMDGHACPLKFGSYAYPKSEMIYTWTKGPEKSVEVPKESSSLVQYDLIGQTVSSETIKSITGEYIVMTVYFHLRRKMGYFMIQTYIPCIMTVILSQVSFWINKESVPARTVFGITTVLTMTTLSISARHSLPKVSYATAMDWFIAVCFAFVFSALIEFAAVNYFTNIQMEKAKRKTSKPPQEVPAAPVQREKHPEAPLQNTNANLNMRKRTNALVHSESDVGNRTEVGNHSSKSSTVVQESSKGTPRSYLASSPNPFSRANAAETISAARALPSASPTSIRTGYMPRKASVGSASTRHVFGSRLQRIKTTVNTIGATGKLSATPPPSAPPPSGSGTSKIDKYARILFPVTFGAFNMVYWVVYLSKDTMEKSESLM
T1 sequence (P18505 26-474): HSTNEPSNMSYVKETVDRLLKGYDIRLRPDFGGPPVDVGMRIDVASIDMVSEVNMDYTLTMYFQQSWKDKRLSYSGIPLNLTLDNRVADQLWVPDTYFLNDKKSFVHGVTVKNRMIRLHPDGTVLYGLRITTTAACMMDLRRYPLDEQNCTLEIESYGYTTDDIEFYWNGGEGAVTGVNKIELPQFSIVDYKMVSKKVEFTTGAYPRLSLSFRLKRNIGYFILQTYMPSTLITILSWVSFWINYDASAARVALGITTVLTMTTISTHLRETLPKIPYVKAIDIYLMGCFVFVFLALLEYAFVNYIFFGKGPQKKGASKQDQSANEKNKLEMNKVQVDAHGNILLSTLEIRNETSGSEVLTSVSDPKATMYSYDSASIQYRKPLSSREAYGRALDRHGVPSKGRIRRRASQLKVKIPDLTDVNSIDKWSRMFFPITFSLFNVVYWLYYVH
T1 sequence (O14764 25-452 partner): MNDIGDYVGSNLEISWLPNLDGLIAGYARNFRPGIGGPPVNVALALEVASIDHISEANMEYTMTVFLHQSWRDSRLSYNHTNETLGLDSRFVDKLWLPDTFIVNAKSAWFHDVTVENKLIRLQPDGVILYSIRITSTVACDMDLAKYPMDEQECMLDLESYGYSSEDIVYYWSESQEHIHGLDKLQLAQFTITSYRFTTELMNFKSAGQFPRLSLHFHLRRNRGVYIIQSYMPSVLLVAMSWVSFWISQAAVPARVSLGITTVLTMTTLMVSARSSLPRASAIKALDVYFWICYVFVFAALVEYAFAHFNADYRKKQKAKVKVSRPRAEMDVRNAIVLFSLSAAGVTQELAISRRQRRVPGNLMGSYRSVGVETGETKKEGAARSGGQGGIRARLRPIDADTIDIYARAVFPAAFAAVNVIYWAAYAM

O=C(Nc1cccc(C(=O)N2CCC3(CCNCC3)CC2)c1)c1cccs1 [compound 018, N-(3-(3,9-diazaspiro[5.5]undecane-3-carbonyl)phenyl)thiophene-2-carboxamide]
IC50 [1]: 37 to 88 nM
IC50 (α1,2,6 GABAΑ receptors): 240 to 790 nM
IC50 [2]: 10.8 nM
potency in patch-clamp relative to FMP assay ([2]; α4β1δ): 9 times

CC(=O)Nc1cccc(C(=O)N2CCC3(CCNCC3)CC2)c1 [compound 2027, N-(3-(3,9-diazaspiro[5.5]undecane-3-carbonyl)phenyl)acetamide]
interference with / quenching of the fluorescence signal (human BGT1): does not quench; also recorded: do not interfere
